For 46 molecules, inhibition, IC50 and EC50 results are on record in ChEMBL document CHEMBL1138003, “Small molecule inhibitors of the CCR2b receptor. Part 1: Discovery and optimization of homopiperazine derivatives” (Bioorg Med Chem Lett, 2004).

Test [1] concerns the target T1, C-C chemokine receptor type 2 (Homo sapiens, UniProt P41597). Description: Percent inhibition of [125I]MCP-1 (Monocyte Chemoattractant Protein-1) binding to THP-1 cells at 100 uM. The test is classed as cell-based.
Target sequence in this assay (P41597 whole entry, looked up): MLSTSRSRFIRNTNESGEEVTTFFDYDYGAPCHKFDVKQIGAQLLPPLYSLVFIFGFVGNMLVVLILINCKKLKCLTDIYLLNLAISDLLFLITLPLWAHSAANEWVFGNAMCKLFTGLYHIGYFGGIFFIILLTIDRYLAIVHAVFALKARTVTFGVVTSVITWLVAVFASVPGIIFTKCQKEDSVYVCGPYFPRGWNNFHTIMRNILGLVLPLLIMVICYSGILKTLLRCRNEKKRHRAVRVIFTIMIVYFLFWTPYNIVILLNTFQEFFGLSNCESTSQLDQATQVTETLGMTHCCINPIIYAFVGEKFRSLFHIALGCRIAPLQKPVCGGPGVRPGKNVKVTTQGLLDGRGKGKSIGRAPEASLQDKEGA
The target in test [2] is T1, C-C chemokine receptor type 2. Description: Concentration required to inhibit [125I]MCP-1 (Monocyte Chemoattractant Protein-1) binding to THP-1 cell. Type of test: cell-based.
Target sequence in this assay (P41597 whole entry): as the sequence (P41597 whole entry, looked up) above
Test [3] shares this target. Briefly: Percent inhibition of […] (Monocyte Chemoattractant Protein-1) binding to THP-1 cells at 100 uM. The test is classed as cell-based.
Target sequence in this assay (P41597 whole entry, looked up): as above
The target is the same in test [4]. Description: Concentration required to inhibit [125I]MCP-1 (Monocyte Chemoattractant Protein-1) binding to THP-1 cell; not determined. The test is classed as cell-based.
Target sequence in this assay (P41597 whole entry): as the sequence (P41597 whole entry, looked up) above
A short description of test [5]: Effective concentration in a chemotaxis assay. Type of test: functional.

Turning to `CS(=O)(=O)c1ccc(CN2CCCN(CCC(O)(c3ccccc3)c3cccc(N)c3)CC2)cc1` (stereo not given), the inhibition (usually the change of the read-out against control, counted positive when it falls) in test [1] stood at 102%. The IC50 – broadly, the concentration that inhibits the measured activity by half – in test [2] came to 4.2 µM.

`O=[N+]([O-])c1cccc(CN2CCCN(CCC(c3ccccc3)c3ccccc3)CC2)c1`: the inhibition in test [3] came to 35%. Same read-out and setting: the same measure for `CCCN1CCCN(CCC(c2ccccc2)c2ccccc2)CC1`: 15%. For `CS(=O)(=O)c1ccc(CN2CCCN(CCC(O)(c3ccc(F)cc3)c3cccc(O)c3)CC2)cc1` (stereo not given), the inhibition in test [1] is 105%. For the same molecule, the IC50 in test [2] is 1.5 µM. Turning to `CS(=O)(=O)c1ccc(CN2CCCN(Cc3ccc(Cl)cc3)CC2)cc1`, in test [2], the IC50 is more than 100 µM. Same read-out and setting: next, `O=C(CN1CCCN(CCC(O)(c2ccccc2)c2cccc(O)c2)CC1)NNC(=O)c1cccs1` (stereo not given): 28 µM. In turn, `Cc1csc(C(=O)NNC(=O)CN2CCCN(CCC(O)(c3ccccc3)c3cccc(O)c3)CC2)c1` (stereo not given) registered an IC50 in test [2] of 6.4 µM. With `CS(=O)(=O)c1ccc(CN2CCCN(CCC(O)(c3ccccc3)c3ccccc3)CC2)cc1`, the inhibition in test [1] was determined as 104%. In test [2], this molecule showed an IC50 of 4.1 µM.

In the case of `COc1ccc(CN2CCCN(CCC(c3ccccc3)c3ccccc3)CC2)cc1`, the inhibition in test [3] came to 7%.

Consider `CS(=O)(=O)c1ccc(CN2CCCN(CCC(O)(c3cccc(O)c3)c3cc(F)cc(F)c3)CC2)cc1` (stereo not given), for which the inhibition in test [1] worked out at 107%. In test [2], this molecule came in with an IC50 of 9.3 µM. For `Cc1ccccc1C(O)(CCN1CCCN(Cc2ccc(S(C)(=O)=O)cc2)CC1)c1ccccc1C`, in test [1], the inhibition stood at 0%.

Take `Clc1ccc(CN2CCCN(CCC(c3ccccc3)c3ccccc3)CC2)cc1`: the inhibition in test [3] was found to be 8%. With `CS(=O)(=O)c1ccc(CN2CCCN(CCC(O)(c3ccc(-c4ccccc4)cc3)c3ccc(-c4ccccc4)cc3)CC2)cc1`, in test [1], the inhibition was found to be 0%. As for `CC(C)(C)c1ccc(C(O)(CCN2CCCN(Cc3ccc(S(C)(=O)=O)cc3)CC2)c2ccc(C(C)(C)C)cc2)cc1`, the inhibition in test [1] stood at 39%. Consider `N#Cc1ccc(CN2CCCN(CCC(c3ccccc3)c3ccccc3)CC2)cc1`, for which the inhibition in test [3] stood at 74%. Moreover, the IC50 in test [2] amounted to 43 µM. On to `CS(=O)(=O)c1ccc(CN2CCCN(CCC(O)(c3ccccc3)c3cccc(O)c3)CC2)cc1` (stereo not given), for which, in test [1], the inhibition amounted to 105%. In addition, in test [2], the IC50 came out at 0.71 µM. As to `COc1cccc(C(O)(CCN2CCCN(Cc3ccc(S(C)(=O)=O)cc3)CC2)c2cccc(OC)c2)c1`, in test [1], the inhibition turned out to be 38%. For `CS(=O)(=O)c1ccc(CN2CCCN(CCC(O)(c3ccccc3)c3cccc(F)c3)CC2)cc1` (stereo not given), the inhibition in test [1] is 95%. Besides, the 50% inhibitory concentration (IC50) in test [2] is 12 µM.

For the molecule `CS(=O)(=O)c1ccc(CN2CCCN(CCC(O)(c3cccc(O)c3)c3cccc(F)c3)CC2)cc1` (stereo not given), the inhibition in test [1] was 104%. The molecule further gave an IC50 in test [2] of 2.4 µM. `COC(=O)c1ccc(CN2CCCN(CCC(c3ccccc3)c3ccccc3)CC2)cc1`: the inhibition in test [3] worked out at 1%. With `O=[N+]([O-])c1ccccc1CN1CCCN(CCC(c2ccccc2)c2ccccc2)CC1`, the inhibition in test [3] was 7%. On to `CS(=O)(=O)c1ccc(CN2CCCN(CCC(O)(c3ccc(Cl)cc3)c3cccc(O)c3)CC2)cc1` (stereo not given), for which the inhibition in test [1] was found to be 104%. Moreover, the IC50 in test [2] turned out to be 1.5 µM. Take `CNc1cccc(C(O)(CCN2CCCN(Cc3ccc(S(C)(=O)=O)cc3)CC2)c2ccccc2)c1` (stereo not given): in test [1], the inhibition worked out at 87%. Further, the IC50 in test [2] came out at 5 µM. As for `NS(=O)(=O)c1ccc(CN2CCCN(CCC(O)(c3ccccc3)c3cccc(O)c3)CC2)cc1` (stereo not given), the concentration for half-maximal inhibition (IC50) in test [2] was determined as 1.5 µM. In the case of `CS(=O)(=O)c1ccc(CN2CCCN(CCC(c3ccccc3)c3ccccc3)CC2)cc1`, the inhibition in test [3] turned out to be 91%. This molecule also came in with an IC50 in test [2] of 13 µM.

With `CS(=O)(=O)c1ccc(CN2CCCN(CCC(O)(c3ccc(O)cc3)c3ccc(O)cc3)CC2)cc1`, in test [1], the inhibition was 83%. Besides, the IC50 in test [2] was determined as 21 µM. On the same counts, the results for `CN(C)c1ccc(C(O)(CCN2CCCN(Cc3ccc(S(C)(=O)=O)cc3)CC2)c2ccc(N(C)C)cc2)cc1` are 68% and 45 µM. The like results for `CS(=O)(=O)c1ccc(CN2CCCN(CCC(O)(c3ccc(F)cc3)c3ccc(F)cc3)CC2)cc1` were, in that order, 100% and 7 µM. For the molecule `O=[N+]([O-])c1ccc(CN2CCCN(CCC(c3ccccc3)c3ccccc3)CC2)cc1`, the inhibition in test [3] came out at 87%. Besides, the IC50 in test [2] is 19 µM.

Take `COc1ccccc1C(O)(CCN1CCCN(Cc2ccc(S(C)(=O)=O)cc2)CC1)c1ccccc1OC`: in test [1], the inhibition was 14%. As to `c1ccc(C(CCN2CCCN(Cc3cccnc3)CC2)c2ccccc2)cc1`, the inhibition in test [3] came to 69%. The molecule `O=C(CN1CCCN(Cc2ccc(Cl)cc2)CC1)NNC(=O)c1cccs1` returned an IC50 in test [2] of 30 µM. For `c1ccc(C(CCN2CCCN(Cc3ccncc3)CC2)c2ccccc2)cc1`, in test [3], the inhibition was 87%. This molecule yielded an IC50 in test [2] of 11 µM. Consider `CS(=O)(=O)c1ccc(CN2CCCN(CCC(O)(c3ccccc3)c3cccc(CO)c3)CC2)cc1` (stereo not given), for which the inhibition in test [1] worked out at 100%. Also, in test [2], the IC50 came to 4 µM.

For `CS(=O)(=O)c1ccc(CN2CCCN(CCC(O)(c3ccc(C(F)(F)F)cc3)c3ccc(C(F)(F)F)cc3)CC2)cc1`, the inhibition in test [1] stood at 38%.

As for `CS(=O)(=O)c1ccc(CN2CCCN(CCC(O)(c3ccc(Cl)cc3)c3ccc(Cl)cc3)CC2)cc1`, the inhibition in test [1] stood at 94%. Moreover, the IC50 in test [2] stood at 11 µM. On to `CS(=O)(=O)c1ccc(CN2CCCN(CCC(O)(c3cccc(O)c3)c3cccc(Cl)c3)CC2)cc1` (stereo not given), for which the inhibition in test [1] stood at 99%. In test [2], this molecule came in with an IC50 of 4.5 µM. The like results for `COc1cccc(C(O)(CCN2CCCN(Cc3ccc(S(C)(=O)=O)cc3)CC2)c2ccccc2)c1` (stereo not given) were, in that order, 97% and 7.9 µM.

Regarding `CS(=O)(=O)c1ccc(CN2CCCN(CCC(O)(c3cccc(Cl)c3)c3cccc(Cl)c3)CC2)cc1`, in test [1], the inhibition came out at 28%. With `CS(=O)(=O)c1ccc(CN2CCCN(CCC(O)(c3cccc(O)c3)c3cccc(O)c3)CC2)cc1`, in test [1], the inhibition was found to be 108%. Moreover, the concentration for half-maximal inhibition (IC50) in test [4] turned out to be 1.5 µM.

As for `c1ccc(CN2CCCN(CCC(c3ccccc3)c3ccccc3)CC2)cc1`, the inhibition in test [3] was 24%.

For the molecule `c1ccc(C(CCN2CCCN(Cc3ccccn3)CC2)c2ccccc2)cc1`, the inhibition in test [3] amounted to 35%. As for `CS(=O)(=O)c1ccc(CN2CCCN(CCC(O)(c3cccc(F)c3)c3cccc(F)c3)CC2)cc1`, the inhibition in test [1] stood at 75%. The IC50 in test [2] turned out to be 34 µM. For `Cc1cccc(C(O)(CCN2CCCN(Cc3ccc(S(C)(=O)=O)cc3)CC2)c2ccccc2)c1` (stereo not given), in test [1], the inhibition was 92%. In test [2], this molecule registered a 50% inhibitory concentration (IC50) of 16 µM. In the case of `FC(F)(F)c1ccc(CN2CCCN(CCC(c3ccccc3)c3ccccc3)CC2)cc1`, in test [3], the inhibition stood at 25%. As for `Cc1csc(C(=O)NNC(=O)CN2CCCN(Cc3ccc(Cl)cc3)CC2)c1`, in test [2], the IC50 came out at 7.4 µM. For the same molecule, in test [5], the EC50 (usually the concentration needed to bring the measured effect to its halfway point) is 9.5 µM.
